Measurements as given in article PMC5983452 (PLoS ONE, 2018).
Several values for one entry are separate records, joined by “and”; a condition that tells them apart may be missing. Identical values can stand only once. Counter-ions that a name gives are not always drawn.

How the values were obtained:
in vitro [1] = format: in vitro ADME; conditions: plasma
Description: After stirred for 30 min at 25 °C, NaBH3CN […]
mixture was concentrated under vacuum. […] The combined organic […]
The crude product was further
The fractions containing product were combined and concentrated. […]
cyclopropylisoxazole-3-carboxamide hydrochloride as a light yellow solid.
Media was changed every two or three days. On
95% at 37°C. […] Cells were
At 120 min the companion plate was
Permeability was assessed in duplicate, on two […]
different occasions. […] Compounds were quantified by LC-MS/MS analysis using a 5 point calibration curve.
The permeability coefficient
Solutions of test compounds (1 µM, 0.5% final
Incubations were performed in
Haloperidol was incubated in parallel as the control compound for each species.
(7 points) and protein containing solutions (6 points).
Liver microsome (LM) stability. […]
the reaction. The final incubation volume was 50 µL. Negative control incubations were included where phosphate buffer was […]
min. The negative controls were incubated for 45 min only. […]
µL methanol at the appropriate time points.
Subsequently, intrinsic CL (CLint) was […]

in vitro [2] = format: in vitro ADME, beagle dogs; conditions: male, beagle, dog, microsomes, pH 7.4
[3] = Rat pharmacokinetic study; format: in vivo, male Sprague Dawley rats; conditions: male Sprague Dawley
Description: 2. […] Food was returned 4 hours after dosing. […] 4. […] Food was returned 4 hours after dosing. […] Supplemental Results:SMYD2 compound characterization […] The […] nM (Figure S8A).

KYSE-150 = test: Cell proliferation, KYSE-150; format: cell-based; conditions: Homo sapiens, read-out: Cellular Proliferation IC50
Description: Cell lines used in these experiments were obtained from the following sources and were cultured according to conditions specified by the respective cell banks. […] The cell lines listed above were tested for mycoplasma and were negative. Cells were authenticated by STR method or vendor protocols. All 313 cell lines in the CRIPSR pooled screen were purchased from commercial vendors and were STR authenticated and mycoplasma negative. A broad panel of cancer cell lines was screened in the Eurofins Oncopanel. All cells in this panel were mycoplasma negative and STR verified.
Thus, 5 compounds representing 4 distinct pharmacophore series of SMYD2 inhibitors are now available for testing the dependence of cancer lines on SMYD2 activity. […] In stark contrast, however, no correlation is seen between the potency for BTF3 methylation inhibition and anti-proliferative activity among these compounds (Fig 3B).

SMYD3 = target: T1, SMYD3 (Homo sapiens, UniProt Q9H7B4); test: SMYD3 biochemical methylation assay (3H-SAM, GST-MAP3K2/MEKK2 substrate); parameters: Protein purification of both isoforms of full length SMYD3 was performed as previously reported; made in house; conditions: tested in duplicate; read-out: selectivity panel result, SMYD3 (off-target)
T1 sequence (Q9H7B4 1-428): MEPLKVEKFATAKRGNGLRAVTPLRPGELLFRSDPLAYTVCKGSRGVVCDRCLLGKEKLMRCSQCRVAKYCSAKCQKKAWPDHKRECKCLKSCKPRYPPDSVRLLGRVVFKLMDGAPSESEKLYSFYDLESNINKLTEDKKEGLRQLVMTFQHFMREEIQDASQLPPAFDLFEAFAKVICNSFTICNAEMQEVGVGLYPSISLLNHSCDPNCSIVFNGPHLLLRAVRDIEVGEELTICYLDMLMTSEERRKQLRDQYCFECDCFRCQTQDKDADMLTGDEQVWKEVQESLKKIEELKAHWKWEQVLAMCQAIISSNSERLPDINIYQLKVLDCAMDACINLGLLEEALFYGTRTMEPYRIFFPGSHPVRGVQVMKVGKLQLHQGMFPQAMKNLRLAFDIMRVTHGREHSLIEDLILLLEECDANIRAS
Description: SMYD3 assays were performed as previously described using N-terminally GST-tagged MAP3K2 protein substrate. […] Reactions were conducted at room temperature with enzyme and inhibitor incubated for 30 minutes before initiating the reaction with substrates. Dose-response curves were tested in duplicate in each experiment. […] Quenched reactions were transferred to a streptavidin-coated flashplate (Perkin Elmer) for capture of the biotinylated peptide. After 2 h incubation at room temperature, the flashplate was washed once with 0.1% Tween-20 and read on a Perkin Elmer Topcount NXT plate reader. Substrate apparent KM values were determined by measuring the initial velocities (v0) in duplicate while varying one substrate at fixed concentration of the second substrate.
Mechanism of inhibition was determined by measuring the inhibitor IC50 values while varying the concentration of one substrate at a fixed concentration of the second substrate equal to its KM value.

SMYD2 [4] = target: T2, SMYD2 (Homo sapiens, UniProt Q9NRG4); test: SPR binding assay EPZ033294/SMYD2 (SensiQ); parameters: Full length FLAG-SMYD2 and C-terminally Avi-tagged full length SMYD2 (SMYD2-Avi) were cloned into pFastbac vectors; FLAG (N); His tag with TEV cleavage site (N, cleaved yes); made in house; host or cells: Sf9 insect cells (baculovirus); conditions: 15°C, 10 µM SAM in running buffer; read-out: dissociation constant (KD) by SPR
T2 sequence (Q9NRG4 whole entry): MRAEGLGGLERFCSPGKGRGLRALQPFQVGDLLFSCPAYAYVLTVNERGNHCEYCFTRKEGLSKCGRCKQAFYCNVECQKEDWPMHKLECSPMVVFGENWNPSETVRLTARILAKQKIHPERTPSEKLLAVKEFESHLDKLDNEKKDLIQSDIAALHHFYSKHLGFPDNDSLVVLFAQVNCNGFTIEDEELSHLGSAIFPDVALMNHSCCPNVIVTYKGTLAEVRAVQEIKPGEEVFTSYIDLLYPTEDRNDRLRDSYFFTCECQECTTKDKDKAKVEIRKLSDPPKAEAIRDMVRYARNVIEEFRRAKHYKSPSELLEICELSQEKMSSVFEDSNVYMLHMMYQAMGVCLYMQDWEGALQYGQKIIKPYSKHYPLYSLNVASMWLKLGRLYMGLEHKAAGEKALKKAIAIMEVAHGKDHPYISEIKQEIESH
Description: The running buffer contained 25 mM Tris-HCl pH 8.0, 150 mM NaCl, 5 mM DTT, 10 µM ZnCl2, 0.05% Tween-20, 10 µM SAM, and 2% DMSO. Avi-tagged biotinylated SMYD2 was immobilized on a neutravidin-coupled BioCap chip up to 6000 RU. Streptavidin on the reference cell was blocked with biocytin. […] Dissociation time was 1000 sec. Analysis of double-referenced data was performed using the 1:1 binding model in QDAT data analysis tool (SensiQ Technologies Inc.).

SMYD2 [5] = target: T2, SMYD2; test: ITC binding assay EPZ033294/SMYD2; parameters: Full length FLAG-SMYD2 and C-terminally Avi-tagged full length SMYD2 (SMYD2-Avi) were cloned into pFastbac vectors; FLAG (N); His tag with TEV cleavage site (N, cleaved yes); made in house; host or cells: Sf9 insect cells (baculovirus); conditions: 25°C
Description: The assay buffer contained 20 mM Tris-HCl pH 8.0, 100 mM sodium chloride, 1 mM TCEP, 5% glycerol, 50 μM S-adenosylmethionine (SAM), and 0.1% DMSO. […] The assay background signal was generated by injecting compound into buffer in the absence of enzyme and subtracted from the experimental data. The binding isotherm was fitted using the single site model in the Origin software for data analysis (OriginLab, Northampton, MA).

SMILES | fraction unbound at 16 h, 1 µM (in vitro [1]; dog, pH 7.4) | fraction unbound at 16 h, 1 µM (in vitro [1]; rat, pH 7.4, Rat fu (unbound fraction)) | microsomal CLint at 1 µM (in vitro [2]) | bioavailability ([3]; plasma, IV 1 mg/kg, PO 5 mg/kg) | half-life ([3]; plasma, IV 1 mg/kg, PO 5 mg/kg) | clearance ([3]; plasma, IV 1 mg/kg, read-out: CLp) | Vd ([3]; plasma, IV 1 mg/kg, read-out: Vss) | Tmax ([3]; plasma, PO 5 mg/kg) | CL renal ([3]; urine and plasma, IV 1 mg/kg) | IC50 (KYSE-150) | IC50 (SMYD3) | Kd (SMYD2 [4]) | stoichiometry of binding (N) by ITC (SMYD2 [5]) | Kd (SMYD2 [5]; 50 μM SAM, three test occasions, read-out: dissociation constant KD by ITC)
NC1CCC(S(=O)(=O)N2C3CCC2CC(NC(=O)c2cc(C4CC4)on2)C3)CC1 [EPZ028862, N-((1R,3R,5S)-8-((1r,4R)-4-aminocyclohexylsulfonyl)-8-aza-bicyclo[3.2.1]octan-3-yl)-5-cyclopropylisoxazole-3-carboxamide hydrochloride] | 0.82 | 0.64 | < 3 µL/min/mg | 59 ± 10% | 2.1 ± 0.2 h | 32.7 ± 4.4 mL/min/kg | 4.4 ± 0.1 L/kg | 1 h | 21 ± 6 mL/min/kg |  |  |  |  | 
O=C(NC1CN(Cc2cnn(Cc3ccc(Cl)cc3)c2)C1)c1cn(C2CC2)nn1 [EPZ033294] |  |  |  |  |  |  |  |  |  | > 40000 nM | > 10000 nM | 5 nM | 0.7 ± 1 and 0.7 | 8.3 ± 8.2 nM
